In US9951087B2, “Fused ring analogues of anti-fibrotic agents” (Fibrotech Therapeutics PTY LTD, priority 2009, dated 2018):

How the values were obtained:
[1] = test system: rat mesangial cells; assay: Proline incorporation assay: reduction of TGF-beta 1 stimulated proline incorporation; format: cell-based; conditions: Mesangial cell, 44 h, TGF-beta 1 5 ng/mL, read-out: Percentage Reduction of TGF-Beta 1 Stimulated Proline Incorporation; for inhibition at 10 µM: 10 μM compound; for inhibition at 30 µM: 30 μM compound; for inhibition at 100 µM: 100 μM compound
Method: (§1) A well-characterised cloned rat mesangial cell line (Kakizaki Y, Kraft N, Atkins R C: Differential control of mesangial cell proliferation by interferon-gamma. Clin Exp Immunol 85:157-163, 1991) was cultured in DMEM (5 mM glucose) with 5% FBS, 100U/mL penicillin, and 100 ug/mL streptomycin in humidified 5% CO2 atmosphere at 37 C. Cells were used up to passage 40.
Proline Incorporation Assay
(§2) Cells were plated into 24-well culture dishes in DMEM/5% FBS and allowed to adhere overnight. The subconfluent cells were then starved overnight in DMEM/0.1% FBS and 150 uM L-ascorbic acid, prior to pre-treatment with or without FibroTech compounds for 4 hours at 10, 30 or 100 uM in 0.1% DMSO, final concentration. TGF-beta 1 at 5 ng/mL (Peprotech) and tritiated proline (Perkin-Elmer, (2,3,4,5-^3H)-proline) at 1 uCi/mL were added and the incubation continued for a further 44 hours. Treatments were performed in triplicate.
After the incubation, cells were placed on ice and washed three times with ice cold PBS. They were then incubated on ice with 10% TCA for 30 minutes, followed by a final wash in cold 10% TCA. The cells were solubilized in 0.75 mL of 1M NaOH at 37 C for 45 minutes, or overnight at 4 C. Aliquots of the solubilized cells were neutralized in an equal amount of 1M HCl and counted in scintillant in a beta counter. Aliquots of neutralized solubilized cells were assayed for protein using the BioRad Bradford Protein Assay. Proline incorporation was normalized for protein content (cpm ^3H-proline incorporated per ug protein).
In order to compare the results of experiments performed on different days, the percentage inhibition of proline incorporation was calculated for each treatment by setting the TGF treatment at 0% inhibition and the control (incubation with media alone) at 100% inhibition.
Percentage Reduction of TGF-Beta 1 Stimulated Proline Incorporation: […]

[2] = test system: rat mesangial cells; assay: Toxicity rank and cell condition observed in the proline incorporation assay; format: cell-based; design: key to Tox. Rank (4 = non-toxic): (4 = non-toxic); conditions: for Cell condition observed (sick, dead): 30 μM; for Cell condition observed (sick, dead, some death, cells elongated): 100 μM
Method: as §1, §2

[3] = Compound precipitation observed during the proline incorporation assay; format: physicochemical; design: key: ppt indicates compound precipitated during assay
Method: as §2

Row | melting point [°C] | Compound | inhibition at 10 µM [1] [%] | inhibition at 30 µM [1] [%] | inhibition at 100 µM [1] [%] | Tox. Rank (4 = non-toxic) ([2]; no concentration stated) | Compound precipitated during assay ([3]; 100 μM in 0.1% DMSO) | Cell condition observed (sick, dead) [2] | Cell condition observed (sick, dead, some death, cells elongated) [2] | Tox. Rank (4 = non-toxic) ([2]; @30 uM) | Tox. Rank (4 = non-toxic) ([2]; @100 uM) | Compound precipitated during assay ([3]; 30 μM in 0.1% DMSO) | Compound precipitated during assay ([3]; 10 μM in 0.1% DMSO)
1 | 276 to 279 | COc1ccc(/C=C/C2=NS(=O)(=O)c3ccccc3N2)cc1OC [FT98, (E)-3-[2-(3,4-Dimethoxyphenyl)ethenyl]-4H-1,2,4-benzothiadiazine-1,1-dioxide] | 30 | 70 | 70 | 4 | – | – | – | – | – | – | –
2 | 228 to 231 | COc1ccc(/C=C/c2nc3ncccc3c(=O)o2)cc1OC [FT102, (E)-2-(3,4-Dimethoxystyryl)-4H-pyrido[2,3-d][1,3]oxazin-4-one] | 0 | 0 | 10 | 4 | ppt | – | – | – | – | – | –
3 | – | COc1ccc(/C=C/c2nc3ccccc3c(=O)o2)cc1OC [FT106, (E)-2-(3,4-Dimethoxystyryl)-4H-benzo[d][1,3]oxazin-4-one] | 0 | 0 | – | – | – | sick | dead | 2@30 uM | 1@100 uM | – | –
4 | 177 to 178 | C#CCOc1ccc(/C=C/c2nc3ccccc3c(=O)o2)cc1OC [FT107, (E)-2-(3-Methoxy-4-propargyloxystyryl)-4H-benzo[d][1,3]oxazin-4-one] | 0 | 0 | 0 | 4 | ppt | – | – | – | – | – | –
5 | 113 to 115 | O=c1oc(/C=C/c2ccc(OC(F)F)c(OC(F)F)c2)nc2ccccc12 [FT108, (E)-2-(3,4-Bis(difluoromethoxy)styryl)-4H-benzo[d][1,3]oxazin-4-one] | 75 | 95 | > 100 | 4 | – | – | – | – | – | – | –
6 | – | COc1ccc(/C=C/c2nc3ccccc3c(=O)o2)cc1OC(C)=O [FT110, (E)-2-(3-Acetoxy-4-methoxystyryl)-4H-benzo[d][1,3]oxazin-4-one] | 0 | 0 | 0 | – | ppt | – | (cells elongated) | – | 3@100 uM | – | –
7 | 118 to 120 | COc1ccc(/C=C/C(=O)N2CCc3ccccc32)cc1OC [FT113, (E)-3-(3,4-dimethoxyphenyl)-1-(indolin-1-yl)prop-2-en-1-one] | 20 | 67 | 44 | 4 | – | – | – | – | – | – | –
8 | – | COc1ccc(/C=C/c2nc3ccccc3[nH]2)cc1OC [FT121, (E)-2-(3,4-Dimethoxystyryl)-1H-benzo[d]imidazole] | ~60 | > 100 | – | – | – | – | dead | 3@30 uM | 1@100 uM | – | –
9 | – | COc1ccc(/C=C/C(=O)N2CCOc3ccccc32)cc1OC [FT122, (E)-1-(2,3-Dihydrobenzo[b][1,4]oxazin-4-yl)-3-(3,4-dimethoxyphenyl)prop-2-en-1-one] | ~25 | ~80 | – | – | – | – | dead | 4@30 uM | 1@100 uM | – | –
10 | – | COc1ccc(/C=C/C(=O)n2c(=O)n(C)c3ccccc32)cc1OC [FT123, (E)-1-(3-(3,4-Dimethoxyphenyl)acryloyl)-3-methyl-1H-benzo[d]imidazol-2(3H)-one] | 0 | 0 | 0 | 1 to 2 | ppt | sick | dead | – | – | ppt | –
11 | – | COc1ccc(/C=C/C(=O)n2c(=O)oc3ccccc32)cc1OC [FT124, (E)-3-(3-(3,4-Dimethoxyphenyl)acryloyl)benzo[d]oxazol-2(3H)-one] | 0 | 0 | 0 | 2 | ppt | sick | sick | – | – | ppt | ppt
12 | – | COc1ccc(/C=C/C(=O)N2CC(=O)Nc3ccccc32)cc1OC [FT125, (E)-4-(3-(3,4-Dimethoxyphenyl)acryloyl)-3,4-dihydroquinoxalin-2(1H)-one] | 0 | 0 | 0 | 2 | – | sick | sick | – | – | – | –
13 | – | COc1cc2c(cc1OC)CC(C(=O)Nc1ccccc1C(=O)O)=C2 [FT126, 2-(5,6-Dimethoxy-1H-indene-2-carboxamido)benzoic acid] | ~55 | ~75 | ~100 | 4 | – | – | – | – | – | – | –
14 | – | COc1cc2nc(C(=O)Nc3ccccc3C(=O)O)[nH]c2cc1OC [FT127, 2-(5,6-Dimethoxy-1H-benzo[d]imidazole-2-carboxamido)benzoic acid] | 0 | 0 | ~50 | 4 | – | – | – | – | – | – | –
15 | – | COc1cc2c(cc1OC)S(=O)(=O)C(C(=O)Nc1ccccc1C(=O)O)=C2 [FT128, 2-(1,1-Dioxo-5,6-dimethoxybenzo[b]thiophene-2-carboxamido)benzoic acid] | ~20 | ~20 | ~40 | – | – | – | (some death) | – | 3@100 uM | – | –
16 | – | COc1cc2c(cc1OC)CCC(C(=O)Nc1ccccc1C(=O)O)=C2 [FT129, 2-(6,7-Dimethoxy-1,2-dihydronaphthalene-3-carboxamido)benzoic acid] | ~10 | ~75 | – | – | – | – | dead | 2@30 uM | 1@100 uM | – | –
17 | – | COc1cc2c(cc1OC)CC(C(=O)Nc1ccccc1C(=O)O)CC2 (stereo not drawn) [FT130, 2-(6,7-Dimethoxy-1,2,3,4-tetrahydronaphthalene-3-carboxamido)benzoic acid] | ~10 | ~30 | ~50 | – | – | – | – | – | 2@100 uM | – | –
18 | – | COc1cc2c(cc1OC)/C(=C/C(=O)Nc1ccccc1C(=O)O)CNC2=O [FT131, (Z)-2-(2-(6,7-Dimethoxy-1-oxo-2,3-dihydroisoquinolin-4(1H)-ylidene)acetamido)benzoic acid] | ~20 | ~10 | ~10 | 4 | – | – | – | – | – | – | –
19 | – | COc1ccc(/C=C/c2nc3c(C(=O)O)cccc3o2)cc1OC [FT132, (E)-2-(3,4-Dimethoxystyryl)benzo[d]oxazole-4-carboxylic acid] | ~2 | ~75 | ~75 | – | ppt | – | (some death) | – | 3@100 uM | ppt | –

Row | Compound | melting point [°C] | inhibition at 10 µM [1] [%] | inhibition at 30 µM [1] [%] | inhibition at 100 µM [1] [%] | Tox. Rank (4 = non-toxic) ([2]; no concentration stated) | Compound precipitated during assay ([3]; 100 μM in 0.1% DMSO) | Cell condition observed (sick, dead) [2] | Cell condition observed (sick, dead, some death, cells elongated) [2] | Tox. Rank (4 = non-toxic) ([2]; @30 uM) | Tox. Rank (4 = non-toxic) ([2]; @100 uM) | Compound precipitated during assay ([3]; 30 μM in 0.1% DMSO) | Compound precipitated during assay ([3]; 10 μM in 0.1% DMSO)
20 | COc1cc(/C=C/c2nc3ccccc3c(=O)o2)ccc1OC(C)=O [FT109, (E)-2-(4-Acetoxy-3-methoxystyryl)-4H-benzo[d][1,3]oxazin-4-one] | 185 to 186 | 3 | 16 | 75 | 4 | ppt | – | – | – | – | – | –
